According to patent publication US9045398B2, “Sulfonium salt and photo-acid generator” (SAN-APRO LTD., priority 2013, dated 2015):

Legend:
[1] = Evaluation of light sensitivity: acid generation ratio after ArF excimer lamp exposure (Rhodamine B base colour reagent); assay type: physicochemical; details: 2.5 mM in acetonitrile with 2.5 mM Rhodamine B base; ArF excimer lamp 193 nm, 1.8 mW/cm^2, integrated amount of light 100 mJ/cm^2
Procedure: The photo-acid generators (A-1) to (A-10) of the present invention and the photo-acid generators (H-1) to (H-3) of comparative examples were each diluted with acetonitrile so that their molar concentrations would be 2.5 mM, and then Rhodamine B base (a color reagent for an acid, produced by Sigma-Aldrich) was added to the respective solutions so that the molar concentration would be 2.5 mM, yielding sample solutions.
A sample solution obtained above was put into a quartz cell having an optical path length of 1 cm and then was exposed to light under prescribed conditions using an ArF excimer lamp (center wavelength=193 nm). The absorbance near 556 nm of the respective sample solutions after exposure to light was measured with a spectrophotometer (UV-vis) because the photo-acid generator in a sample solution is decomposed upon exposure to light to generate an acid, which then reacts with Rhodamine B base and, as a result, the absorbance near 556 nm increases. Based on the absorbance at 556 nm, the molar concentration of the acid in the sample solution after exposure to light was determined using a calibration curve (standard substance: p-toluenesulfonic acid). From the acid concentration determined and the initial concentration of the photo-acid generator, the acid generation ratio was determined by the following calculation.
The acid generation ratio determined by the above-mentioned operations was judged according to the following criteria. The results are shown in Table 2. • A: 55% or more • C: less than 55% • (Light Exposure Conditions) • Photolithography machine: ArF excimer lamp (manufactured by USHIO INC.) • Illuminance (measured with a 193 nm head illuminometer): 1.8 mW/cm^2 • Integrated amount of light (measured with a 193 nm head illuminometer): 100 mJ/cm^2 <Evaluation of Solubility> (Measurement of Degree of Solubility)

[2] = Degree of solubility in propylene glycol monomethyl ether acetate (PGMEA); assay type: physicochemical; details: for Degree of solubility (%): in propylene glycol monomethyl ether acetate (PGMEA); for Degree of solubility in PGMEA compared with Comparative Examples 1 to 3 (identical anion, different cation): versus Comparative Examples 1 to 3
Procedure: The degrees of solubility in propylene glycol monomethyl ether acetate (PGMEA) of the photo-acid generators (A-1) to (A-10) of the present invention and the photo-acid generators (H-1) to (H-3) of comparative examples were measured.
The degree of solubility determined by the above-mentioned operations was judged according to the following criteria. The results are shown in Table 2. • S: 30% or more • A: 5% or more but less than 30% • B: 1% or more but less than 5% • C: less than 1%

Row | Acid generation ratio (%) [1] | Degree of solubility (%) [2] | Degree of solubility in PGMEA compared with Comparative Examples 1 to 3 (identical anion, different cation) [2] | Structure (SMILES)
1 | C (less than 55%) | B (1% or more but less than 5%) |  | Cc1ccc([S+](c2ccccc2)c2ccccc2)cc1.O=S(=O)([O-])C(F)(F)F [H-2, (4-Methylphenyl)diphenylsulfonium trifluoromethanesulfonate, reference compound]
2 | A (55% or more) | S (30% or more) |  | Fc1cccc([S+](c2ccccc2)c2ccccc2)c1 [A-2]
3 | A (55% or more) | A (5% or more but less than 30%) | higher | Fc1cccc([S+](c2ccccc2)c2ccccc2)c1 [A-1]
4 | A (55% or more) | S (30% or more) |  | FC(F)(F)c1cccc([S+](c2ccccc2)c2ccccc2)c1 [A-9]
5 | C (less than 55%) | B (1% or more but less than 5%) |  | Fc1ccc([S+](c2ccccc2)c2ccccc2)cc1.O=S(=O)([O-])C(F)(F)F [H-3, (4-Fluorophenyl)diphenylsulfonium trifluoromethanesulfonate, reference compound]
6 | A (55% or more) | S (30% or more) |  | FC(F)(F)c1cccc([S+](c2ccccc2)c2ccccc2)c1 [A-7]
7 | A (55% or more) | A (5% or more but less than 30%) | higher | FC(F)(F)c1cccc([S+](c2ccccc2)c2ccccc2)c1 [A-6, diphenyl-3-trifluoromethylphenylsulfonium trifluoromethane sulfonate]
8 | A (55% or more) | C (less than 1%) |  | O=S(=O)([O-])C(F)(F)F.c1ccc([S+](c2ccccc2)c2ccccc2)cc1 [H-1, Triphenylsulfonium trifluoromethanesulfonate, reference compound]
9 | A (55% or more) | S (30% or more) |  | Fc1cccc([S+](c2ccccc2)c2ccccc2)c1 [A-3]
10 | A (55% or more) | S (30% or more) |  | Fc1cccc([S+](c2ccccc2)c2ccccc2)c1 [A-4]
11 | A (55% or more) | S (30% or more) |  | FC(F)(F)c1cccc([S+](c2ccccc2)c2ccccc2)c1 [A-8]
